“Also recorded” adds a separate entry of the source. Where two headings read alike, the source gives them in different places.
How the values were obtained:
[1] = MDI fine particle dose (Andersen Cascade Impactor); format: physicochemical; settings: HFA 134a-ethanol MDI; 40° C., 82% relative humidity, 28 days
Method: A Δ^9 THC MDI was formulated and the physical properties of the aerosolized drug characterized. The mass of drug metered by the metering valve was determined following a single actuation (metered dose). The mass of drug delivered (emitted dose) was determined. The mass of particles with an aerodynamic diameter less than 4.7 μm was determined.
Appearance, metered dose reproducibility, emitted dose and particle size distribution of the Δ^9 THC MDI were investigated, before and after storage in an environment maintained at 40° C. and 82% relative humidity for a 28 day period. The mass of drug metered by the metering valve (metered dose, n=10) was determined by collecting single actuations directly from the valve in a puff absorber, using the methods of Byron, 1994.
THC was analyzed by LC-UV detection at 280 nm using a 75:25 acetonitrile: 1% acetic acid mobile phase for Δ^9-THC detection. A standard reverse phase C18 column was used.

Male ICR mice = assay: Antinociception, tail-flick test; format: in vivo; settings: for % MPE (mean ± S.E.): 20 min after treatment
Method: Male ICR mice, weighing approximately 30 g, obtained from Harlan Laboratories (Indianapolis, Ind.) were provided a light cycle of approximately 6 a.m. to 6 p.m., and the temperature remained approximately 23° C. The mice were placed in the lab and allowed to accommodate to the surroundings the evening prior to testing. Animals were allowed food (Harlan Teklab, Madison, Wis.) and water ad libitum.
The exposure chamber was a modified, inverted, 1-liter separation funnel, housed under a fume hood, which allowed four mice to be simultaneously exposed to the aerosol. Air was drawn through the chamber at a rate of approximately 60 ml/minute and filtered through glass wool (Corning Inc., Corning, N.Y.) and charcoal traps (SKC Inc., Eighty Four, Pa.) upon exiting the exposure chamber. Each actuation of Δ^9-THC or vehicle was delivered once per 5 s and the entire exposure period was 10 min. Mice were exposed to 20, 40 or 60 actuations of aerosolized Δ^9-THC or 60 actuations of vehicle.
Mice were placed in separate clear chambers (16.5 cm×25.5 cm×11.5 cm high) and assessed for hypomotility using a Digiscan Animal Activity Monitor (Omnitech Electronics Inc., Columbus, Ohio) in which the total number of photocell-light beam interruptions was counted. Antinociception was assessed in the tail-flick test (D'Amour, F. E., Smith, D. L., A method for determining loss of pain sensation, J Pharm Exp Ther, 72:74-79 (1941)) with heat intensity adjusted to give baseline latencies ranging from 2.0-4.0 seconds. A cut-off time of 10 seconds was used to limit tissue damage. Percent maximum possible effect (%MPE) was determined according to the following formula:
%MPE=[(test latency-baseline latency)/(cut-off-baseline latency)]*100
A ring-test procedure was used to assess catalepsy. The percent of time during a five minute observation period that mice remained motionless, except for movements related to respiration, while stationed on a 5.7 cm diameter ring stand 23 cm above the laboratory bench, was assessed. Body temperature was assessed by inserting a thermometer probe (Traceable Digital, Control Co., Friendswood, Tex.) 2.5 cm into the rectum. Subjects were assessed for baseline tail-flick latency and rectal temperature prior to drug or vehicle administration. […] Locomotor activity, tail-flick latency, catalepsy, and hypothermia were assessed 5, 20, 40, and 60 minutes, respectively, after aerosol exposure. An additional group of animals was given an i.v. injection of Δ^9-THC (0.3, 1, 3, or 10 mg/kg) or vehicle into a lateral tail vein and assessed in the tail-flick test 20 minutes later. All injections were given in a volume of 0.1 ml per 10 g animal weight.
The statistical analysis of the data was as follows. Data are represented by means±standard error (s.e.). Statistical analysis of the data was performed using Student t-tests (for the physiochemical comparisons of the aerosol), or ANOVA (for pharmacological studies), with significance set at p<0.05. Post hoc tests for significant ANOVAs included either Dunnett's test or Tukey/Kramer post-hoc analysis. […] A sample size of 6-8 mice was used in each group.

[2] = system: AIDS-associated anorexia and cachexia; settings: oral 2.5 mg THC twice daily; 139 patients; 42 days; cited from earlier work
[3] = system: Nausea and emesis due to Cancer chemotherapy; settings: oral 5 or 15 mg/m^2 THC four times per day; 53 patients refractory to other antiemetics; cited from earlier work
[4] = system: Nausea and emesis due to Cancer chemotherapy; settings: oral 10 mg/m^2 THC; 84 patients; cited from earlier work
[5] = system: Spasticity related to multiple sclerosis; settings: oral 10 or 15 mg THC, rectal 5 or 10 mg THC; 2 patients; cited from earlier work
[6] = system: Spasticity related to multiple sclerosis; settings: 13 patients, cited from earlier work
[7] = system: Spasticity and pain due to spinal cord injury; settings: oral THC (5 mg) or codeine (50 mg); 1 patient; cited from earlier work
[8] = system: Nausea and emesis due to Cancer chemotherapy; settings: oral 10 mg/m^2 THC; refractory to other antiemetics; cited from earlier work
[9] = system: Nausea and emesis due to Cancer chemotherapy; settings: oral 10 mg/m^2 THC every 3 hours, 5 doses, 15 patients, cited from earlier work
Glaucoma = settings: oral 5, 10, 15 and 20 mg THC; 6 glaucoma patients; cited from earlier work
[10] = cited from earlier work
[11] = intravenous, bolus, 5 mg (Ohlsson et al., 1980)
[12] = oral, in cookies, 20 mg (Ohlsson et al., 1980)
[13] = oral, sesame oil in gelatin capsules, 2.5, 5, or 10 mg (PDR, 1995)
[14] = smoking, 13 mg (Ohlsson et al., 1980)

Question: Which results are given for `CCCCCc1cc(O)c2c(c1)OC(C)(C)[C@@H]1CCC(C)=C[C@@H]21` (relative stereo) [Δ^9 THC, (6aR-trans)-6a,7,8,10a-tetrahydro-6,6,9-trimethyl-3-pentyl-6H-dibenzo[b,d]-pyran-1-ol]?
Answer: deterioration/degradation of Δ^9-THC content on storage [1]: no deterioration; also recorded: no significant degradation; ED50 (Male ICR mice; Mus musculus, intravenous, read-out: antinociceptive ED50 (95% C.L.)): 2.4 mg/kg; antinociceptive ED50 (95% C.L.) (Male ICR mice; inhalation): 30 (20-44) actuations; % MPE (mean ± S.E.) (Male ICR mice; inhalation, 20 actuations): 37 ± 11 % MPE; % MPE (mean ± S.E.) (Male ICR mice; inhalation, 40 actuations): 58 ± 14 % MPE; % MPE (mean ± S.E.) (Male ICR mice; inhalation, 60 actuations): 78 ± 11 % MPE; % MPE (mean ± S.E.) (Male ICR mice; intravenous, 1 mg/kg): 31 ± 8 % MPE; % MPE (mean ± S.E.) (Male ICR mice; intravenous, 3 mg/kg): 70 ± 14 % MPE; % MPE (mean ± S.E.) (Male ICR mice; intravenous, 10 mg/kg): 67 ± 11 % MPE; appetite increase over baseline [2]: Appetite increased 38%; nausea [2]: THC also decreased; weight change between THC and placebo groups [2]: nausea. No significant; patients with THC-induced partial or complete blockade of vomiting [3]: 72% of patients exhibited a; antiemetic efficacy compared with prochloperazine [4]: THC more effective than; passive mobility and walking ability [5]: Improvement in passive; objective measurements of spasticity ([6]; oral 2.5 to 15 mg THC once or twice daily): no significant improvement; subjective improvement in spasticity ([6]; oral, at 7.5 mg THC and higher, once or twice daily): Significant subjective; effect on spasticity [7]: THC had a beneficial effect; courses resulting in a reduction of vomiting (of 20 courses of THC) [8]: resulted in no vomiting, 9; courses resulting in no decrease in vomiting (of 20 courses of THC) [8]: vomiting, 3 resulted in no; courses resulting in no vomiting (of 20 courses of THC) [8]: In 20 courses of THC, 5; patients with a fair response [9]: excellent response, 40%; plasma THC levels (mean + SD) [9]: THC levels 7.1 ± 6.9 (mean ng/ml; side effects [9]: tachycardia, few other side; patients with a reduction in nausea and vomiting ([9]; THC (17 mg) laced cigarettes if vomiting occurred): 93% patients had a; appetite (Glaucoma): appetite stimulation,; mood (Glaucoma): elevated mood; pain (Glaucoma): Pain relief; % Dose in Plasma [10, 11]: 100%; Onset of Pharmacological Action [10, 11]: 10 min; Peak Plasma Levels (time) [10, 11]: 3 min; % Dose in Plasma [10, 12]: 4 to 12%; Onset of Pharmacological Action [10, 12]: 120-180 min; Peak Plasma Levels (time) [10, 12]: 60 to 90 min; % Dose in Plasma [10, 13]: 10 to 20%; Onset of Pharmacological Action [10, 13]: 0.5 to 1 hour; Peak Plasma Levels (time) [10, 13]: 120 to 480 min; % Dose in Plasma ([10]; smoking (THC lost to side stream smoke and pyrolysis), 13 mg (Ohlsson et al., 1980)): 8 to 24%; Onset of Pharmacological Action [10, 14]: 10 min; Peak Plasma Levels (time) [10, 14]: 3 min
